Experimental data published in PMC10708113, “Comparative Study of Essential Oils from Different Organs of Syzygium cumini (Pamposia) Based on GC/MS Chemical Profiling and In Vitro Antiaging Activity” (Molecules, 2023).
≈ marks a conversion by molar mass, not a printed value.

Target: T1, collagenase
T1 construct: gene colG
Experiment: fluorometric collagenase inhibitor screening kit
Type: biochemical
Settings: 15 min preincubation at 25 °C; kinetic read 60 min at 37 °C; ex 490 / em 520 nm

With `Cc1cnc(NC(=O)C2=C(O)c3ccccc3S(=O)(=O)N2C)s1` [Meloxicam] the IC50 was 38.48 µg/mL (≈ 110 µM).
